The values below come from US10633407B2, “14-membered ketolides and methods of their preparation and use” (President and Fellows of Harvard College, priority 2014, dated 2020).

Converted amounts (≈) assume the structure as drawn.

Common to all, as to assay type: cell-based
The test system of assay [1] is S. pneumoniae mef A genotype (first strain so labelled). Kind of assay: CLSI broth dilution MIC determination. The conditions noted are these: Streptococcus pneumoniae, first strain (MP-626 UNT-038). The method in brief: (§1)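 Method: CLSI broth dilution; endpoint: MIC. Macrolide controls azithromycin and solithromycin added in many cases.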
For orientation: In broth dilution the organism is exposed to a series of concentrations in liquid medium.

Assay [2] concerns strains of B. subtilis, E. coli, S. aureus, S. pneumoniae, and H. influenzae, including several multidrug-resistant strains. The assay is described as follows: CLSI broth dilution MIC determination, whole panel of strains. The note with it: from MIC data, Tables B1-B13. An excerpt: MIC data was collected for the novel macrolides that this platform has produced against over 21 unique strains of B. subtilis, E. coli, S. aureus, S. pneumoniae, and H. influenzae, including several multidrug-resistant strains, with a special focus on macrolide resistant mechanisms (vide supra). Azithromycin (Azithro) and Solithromycin (Solithro) were included as a control macrolides in many cases. CLSI standard procedures for broth dilution MIC determination were used. […] These genotypes can be constitutive or inducible.

Assay [3] has as its system E. coli MP-532 clinical-cErmB. The assay is described as follows: CLSI broth dilution MIC determination. The note with it: Escherichia coli. The method, boiled down:
as §1

A further assay deals with E. coli MP-541 clinical. Kind of assay: CLSI broth dilution MIC determination. The conditions noted are these: Escherichia coli, MP541CLINICAL, read-out: MIC. The method in brief: as §1
Assay [4] deals with E. coli MP-9 ATCC25922:tolC. The assay is described as follows: CLSI broth dilution MIC determination. The note with it: Escherichia coli, ATCC25922. The method, boiled down: as §1
Assay [5] has as its system S. aureus (MRSA) MP-513 ST-228 cErm (Clinical-cErm). The assay is described as follows: CLSI broth dilution MIC determination. The note with it: Staphylococcus aureus, read-out: MIC. The method, boiled down:
as §1

Assay [6] has as its system S. aureus MP-17 ATCCBAA-977 (BAA 977 iErm). Kind of assay: CLSI broth dilution MIC determination. The conditions noted are these: Staphylococcus aureus. The method, boiled down:
as §1

In a further assay the test system is P. aeruginosa MP-7 PAO1. Kind of assay: CLSI broth dilution MIC determination. The note with it: Pseudomonas aeruginosa, read-out: MIC.
The subject of assay [7] is P. aeruginosa MP-8 PAO1:mex (mex-oprM-deletion). Kind of assay: CLSI broth dilution MIC determination. The conditions noted are these: Pseudomonas aeruginosa, PAO1.
The test system of assay [8] is K. pneumoniae MP-548 clinical. The assay is described as follows: CLSI broth dilution MIC determination. The note with it: Klebsiella pneumoniae, MP548CLINICAL, read-out: MIC.
Assay [9] has as its system K. pneumoniae MP-546 Clinical-MDR. Kind of assay: CLSI broth dilution MIC determination. The note with it: Klebsiella pneumoniae, read-out: MIC.
In assay [10] the test system is A. baumannii MP-576 Clinical-MDR. The assay is described as follows: CLSI broth dilution MIC determination. The conditions noted are these: Acinetobacter baumannii, read-out: MIC.

The MIC is the lowest concentration found to suppress growth. As to `CC[C@H]1OC(=O)[C@@](C)(F)C(=O)[C@H](C)[C@@H](O[C@@H]2OC(C)CC(N(C)C)C2O)[C@](C)(OC)C[C@@H](C)C(=O)[C@H](C)[C@H]2N(CC#CCn3cc(-c4cccc(N)c4)nn3)C(=O)O[C@]12C` (stereo partly drawn) [FSM-100426], in [1], the minimum inhibitory concentration (MIC) was under 0.0312 µg/mL. In [2], the “potency compared with solithromycin” value is “more potent”.

Regarding `CC[C@H]1OC(=O)[C@@](C)(F)C(=O)[C@H](C)[C@@H](OC2OC(C)CC(N(C)C)C2O)[C@](C)(OC)C[C@@H](C)C(=O)[C@H](C)[C@H]2N(CCCCn3cc(-c4cccc(N)c4)nn3)C(=O)O[C@]12C` (stereo partly drawn) [Solithro, solithromycin, reference compound], the MIC in assay [3] was over 32 µg/mL; in the assay on E. coli MP-541 clinical, 16 µg/mL (≈ 18.9 µM); in assay [4], 4 µg/mL (≈ 4.73 µM); in assay [5] it was over 32 µg/mL; in [6] it was 0.125 µg/mL (≈ 0.148 µM); in the assay on P. aeruginosa MP-7 PAO1, over 32 µg/mL. Moreover, the MIC in assay [7] was 8 µg/mL (≈ 9.47 µM); in [8], 32 µg/mL (≈ 37.9 µM); in assay [9] it was over 32 µg/mL; in assay [10] it was over 32 µg/mL.
